Data reported in patent US20210353701A1, “ULTRAVIOLET LIGHT-INDUCED INFLAMMATION SUPPRESSING AGENT COMPRISING ALTERNATIVE AUTOPHAGY INDUCING AGENT” (Shiseido Company, Ltd., priority 2018, published 2021).

Key:
[1] = test system: Normal human epidermal keratinocytes (NHEK); assay: IL-1β production after ultraviolet irradiation in NHEK treated with autophagy inhibitor or inducing agent (ELISA); assay type: cell-based; conditions: 3-MA 1 mM; UV 290 to 315 nm, 20 mJ/cm^2; culture supernatant after 48 hours
Method: Normal human epidermal keratinocytes (NHEK) (Kurabo Industries, Ltd.) were seeded in a 6-well plate and cultured to subconfluence using epidermal keratinocyte growth medium (EpiLife-KG2; Gibco Co). The medium was then exchanged with medium containing 3-methyladenine (3-MA) (by R&D Co., final concentration: 1 mM), as a known autophagy inhibitor and medium containing rapamycin (by Enzo Life Science, final concentration: 0.5 μM) as a known autophagy inducing agent, and culturing was continued for 3 hours. After culturing, the medium was discarded, PBS was added and irradiation was carried out with ultraviolet rays (290 to 315 nm) at a radiation intensity of 20 mJ/cm^2. Following ultraviolet irradiation, culturing was continued under the medium conditions described above including 3-MA or rapamycin, and after 48 hours the culture supernatant of each was obtained. The IL-1β concentration of the obtained culture supernatant was evaluated using a Quantikine Human IL-1β ELISA Kit (R&D co.) (FIGS. 1A and B). Statistical significance testing was conducted using Student's or Welch's t test.

[2] = test system: NHEK cells; assay: IL-1β production after ultraviolet irradiation in siRNA-treated NHEK cells (ELISA); assay type: cell-based, human; conditions: siRNA 200 nM; UV 290 to 315 nm, 15 mJ/cm^2; culture supernatant after 48 hours
Method: (§1) An Amaxa Human Keratinocyte Nucleofector Kit (Lonza) was used to transfect NHEK cells (8.0×10^5 cells) with siRNA to a final concentration of 200 nM. The knockdown efficiency was confirmed by the mRNA expression level of Atg5, Atg7 and Beclin1 using an RT-PCR method (FIGS. 2A, B and C). The RT-PCR primers used were primers by Sigma-Aldrich, and GAPDH (Sigma-Aldrich) was used as an internal standard for standardization of the expression levels.
The siRNA-treated NHEK cells were seeded into a 6-well plate and cultured for 24 hours. The medium was then discarded, PBS was exchanged, and irradiation was carried out with ultraviolet rays (290 to 315 nm) at a radiation intensity of 15 mJ/cm^2. Following ultraviolet irradiation, the medium was again exchanged and culturing was continued for 48 hours to obtain a culture supernatant. The IL-1β concentration of the obtained culture supernatant was evaluated using a Quantikine Human IL-1β ELISA Kit (R&D co.) (FIGS. 3A, B and C). Student's t-test was used as the statistical significance test.

[3] = test system: Atg5; assay: siRNA knockdown efficiency by RT-PCR, Atg5; assay type: cell-based, human; conditions: siRNA 200 nM in NHEK cells, GAPDH internal standard
Method: as §1

[4] = test system: Atg7; assay: siRNA knockdown efficiency by RT-PCR, Atg7; assay type: cell-based, human; conditions: siRNA 200 nM in NHEK cells, GAPDH internal standard
Method: as §1

[5] = test system: Beclin1; assay: siRNA knockdown efficiency by RT-PCR, Beclin1; assay type: cell-based, human; conditions: siRNA 200 nM in NHEK cells, GAPDH internal standard
Method: as §1

| Molecule | IL-1β concentration after ultraviolet irradiation, increase [1] | IL-1β production induced by ultraviolet ray [2] | Atg5 expression (mRNA) [3] | Atg7 expression (mRNA) [4] | Beclin1 expression (mRNA) [5] |
| --- | --- | --- | --- | --- | --- |
| Cn1cnc(N)c2ncnc1-2 [3-methyladenine] | approximately 3 fold | – | – | – | – |
| Atg5-targeted siRNA: siRNA for Atg5 purchased from Invitrogen, SEQ ID NO: 1 and 2 (chain 1 GGUUUGGACGAAUUCCAACUUGUUU; chain 2 AAACAAGUUGGAAUUCGUCCAAACC; listed as RNA, chemistry not given here) | – | unchanged | suppressed | – | – |
| Atg7-targeted siRNA: siRNA for Atg7 purchased from Invitrogen, SEQ ID NO: 3 and 4 (chain 1 GCCGUCAUUGCUGCAAGCAAGAGAA; chain 2 UUCUCUUGCUUGCAGCAAUGACGGC; listed as RNA, chemistry not given here) | – | unchanged | – | suppressed | – |
| Beclin1-targeted siRNA: siRNA for Beclin1 purchased from Invitrogen, SEQ ID NO: 5 and 6 (chain 1 CCAAUAAGAUGGGUCUGAAAUUUCA; chain 2 UGAAAUUUCAGACCCAUCUUAUUGG; listed as RNA, chemistry not given here) | – | significantly increased | – | – | suppressed |
